Among the data in ChEMBL document CHEMBL1135757, “Orally active, water-soluble antimalarial 3-aryltrioxanes: short synthesis and preclinical efficacy testing in rodents” (J Med Chem, 2002) are IC50, ED50 and ED90 values, retold here.

Test [1] concerns Plasmodium berghei. Briefly: (§1) Antimalarial activity against Plasmodium berghei in mice (Mus musculus). The class given is functional, organism-based.
The subject of test [2] is Plasmodium berghei. The test is described as §1. The class given is functional.

On to `c1ccc([C@@]23CC[C@H]4CCC[C@H]5CCO[C@H](O2)[C@@]45OO3)cc1`, for which the 50% inhibitory concentration (IC50) in the test with Plasmodium berghei [1] is 1.3 nM.
In the test with Plasmodium berghei [2], `O=C(O)c1ccc([C@@]23CC[C@H]4CCC[C@H]5CCO[C@H](O2)[C@@]45OO3)cc1` displayed an ED50 of 15 mg/kg and an ED90 of 51 mg/kg.
Take `O=C(O)c1ccc([C@]23CC[C@H]4CCCC[C@@]4(OO2)[C@H](OCc2ccccc2)O3)cc1`: in the test on Plasmodium berghei [2], it took a dose of 17 mg/kg to reach the 50% effect level (ED50) and the ED90 was determined as 59 mg/kg.
As for `Fc1ccc([C@]23CC[C@H]4CCCC[C@@]4(OO2)[C@H](OCc2ccccc2)O3)cc1`, the concentration for half-maximal inhibition (IC50) in the test with Plasmodium berghei [1] came out at 31 nM.
Still for that read-out and setting: next, `C[C@@H]1CC[C@H]2[C@@H](C)C(=O)O[C@@H]3O[C@@]4(C)CC[C@@H]1[C@]32OO4` [ARTEMISININ]: 9.4 nM.
In the test on Plasmodium berghei [2], `C[C@@H]1[C@H](OCc2ccc(C(=O)O)cc2)O[C@@H]2O[C@@]3(C)CC[C@@H]4[C@@H](C)CC[C@@H]1[C@]24OO3` [ARTELINIC ACID] had a median effective dose (ED50) of 9.6 mg/kg and an ED90 of 29 mg/kg.
